According to paper PMC6917776, “Discovery of a chemical probe for PRDM9” (Nature Communications, 2019):
“And” between values parts separate entries of the source, which are not always exact repeats. Equal entries are not always repeated. Where two headings read alike, the source gives them in different places.

Columns and labels:
[1] = target: T1, GLP (Homo sapiens, UniProt Q9H9B1); experiment: Methyltransferase selectivity assay (SPA); assay type: biochemical; conditions: EHMT1, Exp1, Exp2
T1 construct: purchased Structural Genomics Consortium (SGC Toronto) in-house methyltransferase panel
T1 sequence (Q9H9B1 1-1298): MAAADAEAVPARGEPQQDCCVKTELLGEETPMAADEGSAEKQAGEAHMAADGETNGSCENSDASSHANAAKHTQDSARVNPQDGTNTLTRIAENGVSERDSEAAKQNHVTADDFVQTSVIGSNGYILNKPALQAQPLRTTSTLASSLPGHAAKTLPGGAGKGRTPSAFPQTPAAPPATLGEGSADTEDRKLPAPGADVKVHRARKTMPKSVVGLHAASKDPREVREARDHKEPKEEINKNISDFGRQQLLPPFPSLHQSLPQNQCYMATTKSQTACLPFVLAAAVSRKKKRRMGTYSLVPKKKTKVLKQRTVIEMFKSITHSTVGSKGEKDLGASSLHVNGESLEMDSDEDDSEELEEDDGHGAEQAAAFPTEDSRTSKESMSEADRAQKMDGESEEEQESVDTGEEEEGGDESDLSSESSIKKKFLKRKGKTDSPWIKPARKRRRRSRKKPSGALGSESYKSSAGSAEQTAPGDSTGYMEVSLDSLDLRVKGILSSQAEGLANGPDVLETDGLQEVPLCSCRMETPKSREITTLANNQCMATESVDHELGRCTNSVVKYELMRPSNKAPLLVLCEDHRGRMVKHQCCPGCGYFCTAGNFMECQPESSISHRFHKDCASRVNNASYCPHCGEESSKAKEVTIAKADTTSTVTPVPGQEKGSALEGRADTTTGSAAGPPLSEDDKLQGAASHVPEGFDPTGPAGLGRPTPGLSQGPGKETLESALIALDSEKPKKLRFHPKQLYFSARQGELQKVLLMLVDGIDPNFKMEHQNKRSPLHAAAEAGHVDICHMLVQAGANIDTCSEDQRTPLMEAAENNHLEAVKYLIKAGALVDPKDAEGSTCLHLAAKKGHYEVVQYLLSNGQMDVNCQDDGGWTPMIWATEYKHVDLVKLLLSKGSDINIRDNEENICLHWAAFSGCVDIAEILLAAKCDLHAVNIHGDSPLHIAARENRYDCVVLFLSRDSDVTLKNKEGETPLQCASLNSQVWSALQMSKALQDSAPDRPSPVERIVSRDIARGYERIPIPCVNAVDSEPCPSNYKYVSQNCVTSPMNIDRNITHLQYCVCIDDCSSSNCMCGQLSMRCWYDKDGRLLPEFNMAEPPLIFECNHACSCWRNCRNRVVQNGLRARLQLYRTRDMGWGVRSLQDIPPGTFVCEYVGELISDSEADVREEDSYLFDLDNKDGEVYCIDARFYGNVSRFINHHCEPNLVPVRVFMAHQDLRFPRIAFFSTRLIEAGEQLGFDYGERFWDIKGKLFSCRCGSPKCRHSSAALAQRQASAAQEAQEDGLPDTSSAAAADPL

[2] = target: T2, SUV420H2 (Homo sapiens, UniProt Q86Y97); experiment: Methyltransferase selectivity assay (SPA); assay type: biochemical
T2 construct: purchased Structural Genomics Consortium (SGC Toronto) in-house methyltransferase panel
T2 sequence (Q86Y97 whole entry): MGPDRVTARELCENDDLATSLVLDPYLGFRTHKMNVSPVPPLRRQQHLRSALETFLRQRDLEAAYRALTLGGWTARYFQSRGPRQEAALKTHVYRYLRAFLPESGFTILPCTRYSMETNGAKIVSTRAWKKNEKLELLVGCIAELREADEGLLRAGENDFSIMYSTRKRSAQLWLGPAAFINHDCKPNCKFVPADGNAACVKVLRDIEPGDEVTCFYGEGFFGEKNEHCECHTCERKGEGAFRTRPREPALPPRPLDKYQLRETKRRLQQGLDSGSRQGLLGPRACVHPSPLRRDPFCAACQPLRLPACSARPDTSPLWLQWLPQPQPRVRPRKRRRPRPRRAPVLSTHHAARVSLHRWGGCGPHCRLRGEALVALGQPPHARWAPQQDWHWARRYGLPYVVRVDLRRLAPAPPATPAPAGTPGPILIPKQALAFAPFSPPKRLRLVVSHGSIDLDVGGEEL

[3] = test system: HEK293T cells; experiment: Cell growth, IncuCyte ZOOM cell number; assay type: cell-based; conditions: for HEK293T cell growth (in words): 24 h of treatment; for Cell# - toxocity data, % Control: HEK293T-1day, Figure 6c, technical replicates
[4] = target: T3, PRDM9 (Homo sapiens, UniProt Q9NQV7); experiment: MOA determination: IC50 at varying SAM or peptide concentrations (SPA); assay type: biochemical
T3 construct: PRDM9 (amino acids: 195–415)
T3 sequence (Q9NQV7 195-415): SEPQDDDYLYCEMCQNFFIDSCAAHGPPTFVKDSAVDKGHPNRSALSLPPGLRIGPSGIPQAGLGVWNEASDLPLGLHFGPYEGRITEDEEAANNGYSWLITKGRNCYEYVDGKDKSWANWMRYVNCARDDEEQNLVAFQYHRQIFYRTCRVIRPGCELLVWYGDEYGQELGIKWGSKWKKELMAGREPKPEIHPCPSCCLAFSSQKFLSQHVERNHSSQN
Text: Reactions (in quadruplicates) were initiated by adding SAM and followed by measuring the methyltransferase activity using SPA assay. The determined IC50 values were fitted against the corresponding substrate concentrations. An increase in IC50 values when concentration of peptide was increased indicated a peptide-competitive pattern of inhibition.

[5] = 10µM compound, Exp1, Exp2, 10 µM

Q: `COc1cc(OC)cc(-c2noc(N3CCN(C)C4(CCN(c5ccccc5)CC4)C3)n2)c1` [MRK-740 -NC] was tested. Which activity at 1 µM ([1]; 1µM compound) did it give?
A: 100%

Q: What about the activity at 10 µM ([1]; 10µM compound) of the same compound?
A: 95%

Q: What about the Activity % ([1]; 10µM compound, 10 µM) of the same compound?
A: 98%

Q: And the activity at 1 µM ([2]; 1µM compound, Exp1, Exp2)?
A: 106%

Q: What about the activity at 10 µM ([2]; 10µM compound, Exp1, Exp2) of the same compound?
A: 98%

Q: And the Activity % [2, 5]?
A: 103%

Q: `COc1cc(OC)cc(-c2noc(N3CCN(C)C4(CCN(c5ccccc5)CC4)C3)n2)c1` [MRK-740-NC] was tested. Which “HEK293T cell growth (in words)” value ([3]; 3 µM) did it give?
A: neither compound affected HEK293T cell growth

Q: What about the “Cell# - toxocity data, % Control” value ([3]; 1 µM) of the same compound?
A: 113.12 % Control and 118.767 % Control and 86.3705 % Control

Q: What about the “Cell# - toxocity data, % Control” value ([3]; 3 µM) of the same compound?
A: 125.539 % Control and 114.582 % Control and 84.3363 % Control

Q: What about the “Cell# - toxocity data, % Control” value ([3]; 5 µM) of the same compound?
A: 86.195 % Control and 121.075 % Control and 87.3323 % Control

Q: And the “Cell# - toxocity data, % Control” value ([3]; 10 µM)?
A: 76.5766 % Control and 74.1915 % Control and 52.2642 % Control

Q: Which “Pattern of PRDM9 inhibition with respect to SAM” value ([4]; 20 µM peptide, SAM 22 to 350 µM) does the source give for `COc1cc(OC)cc(-c2noc(N3CCN(C)C4(CCN(c5ccnc(C)c5)CC4)C3)n2)c1` [MRK-740] here?
A: uncompetitive pattern

Q: And the Ki ([4]; 20 µM peptide, varying SAM, read-out: Ki, estimated from asymptote of Fig 2d)?
A: ~160 nM

Q: And the “Pattern of PRDM9 inhibition with respect to peptide (H3 1–25) substrate” value ([4]; 350 µM SAM, peptide 1.25 to 20 µM)?
A: competitive pattern of PRDM9 inhibition

Q: What about the Ki ([4]; 350 µM SAM, varying H3 1–25 peptide, read-out: Ki, calculated from Y intercept of Fig. 2e) of the same compound?
A: 65 ± 6 nM

Q: What about the IC50 ([4]; [H3 1-25]/Km 1.25, Figure 2e, average of replicates, read-out: Average IC50) of the same compound?
A: 0.0749 µM

Q: What about the IC50 ([4]; [H3 1-25]/Km 1.25, Figure 2e, read-out: IC50 (µM), replicates) of the same compound?
A: 0.0747 µM and 0.0785 µM and 0.0703 µM and 0.0762 µM

Q: And the IC50 ([4]; [H3 1-25]/Km 2.5, Figure 2e, average of replicates, read-out: Average IC50)?
A: 0.0926 µM

Q: What about the IC50 ([4]; [H3 1-25]/Km 2.5, Figure 2e, read-out: IC50 (µM), replicates) of the same compound?
A: 0.0843 µM and 0.0895 µM and 0.0878 µM and 0.109 µM

Q: And the IC50 ([4]; [H3 1-25]/Km 5, Figure 2e, average of replicates, read-out: Average IC50)?
A: 0.125 µM

Q: And the IC50 ([4]; [H3 1-25]/Km 5, Figure 2e, read-out: IC50 (µM), replicates)?
A: 0.129 µM and 0.102 µM and 0.118 µM and 0.151 µM

Q: And the IC50 ([4]; [H3 1-25]/Km 10, Figure 2e, average of replicates, read-out: Average IC50)?
A: 0.169 µM

Q: And the IC50 ([4]; [H3 1-25]/Km 10, Figure 2e, read-out: IC50 (µM), replicates)?
A: 0.138 µM and 0.151 µM and 0.173 µM and 0.215 µM

Q: What about the IC50 ([4]; [H3 1-25]/Km 20, Figure 2e, average of replicates, read-out: Average IC50) of the same compound?
A: 0.254 µM

Q: And the IC50 ([4]; [H3 1-25]/Km 20, Figure 2e, read-out: IC50 (µM), replicates)?
A: 0.228 µM and 0.278 µM and 0.257 µM

Q: And the IC50 ([4]; [SAM]/Km 0.18, Figure 2d, average of replicates, read-out: Average IC50)?
A: 0.893 µM

Q: And the IC50 ([4]; [SAM]/Km 0.18, Figure 2d, read-out: IC50 (µM), replicates)?
A: 0.838 µM and 0.633 µM and 1.03 µM and 1.07 µM

Q: What about the IC50 ([4]; [SAM]/Km 0.36, Figure 2d, average of replicates, read-out: Average IC50) of the same compound?
A: 0.704 µM

Q: What about the IC50 ([4]; [SAM]/Km 0.36, Figure 2d, read-out: IC50 (µM), replicates) of the same compound?
A: 0.519 µM and 0.651 µM and 0.615 µM and 1.03 µM

Q: What about the IC50 ([4]; [SAM]/Km 0.73, Figure 2d, average of replicates, read-out: Average IC50) of the same compound?
A: 0.374 µM

Q: And the IC50 ([4]; [SAM]/Km 0.73, Figure 2d, read-out: IC50 (µM), replicates)?
A: 0.349 µM and 0.395 µM and 0.369 µM and 0.382 µM

Q: And the IC50 ([4]; [SAM]/Km 1.46, Figure 2d, average of replicates, read-out: Average IC50)?
A: 0.275 µM

Q: And the IC50 ([4]; [SAM]/Km 1.46, Figure 2d, read-out: IC50 (µM), replicates)?
A: 0.27 µM and 0.288 µM and 0.249 µM and 0.292 µM

Q: And the IC50 ([4]; [SAM]/Km 2.92, Figure 2d, average of replicates, read-out: Average IC50)?
A: 0.21 µM

Q: What about the IC50 ([4]; [SAM]/Km 2.92, Figure 2d, read-out: IC50 (µM), replicates) of the same compound?
A: 0.18 µM and 0.228 µM and 0.197 µM and 0.236 µM

Q: What about the “Effect of SAH on PRDM9 inhibition by MRK-740, compared with SAM” value ([4]; increasing SAH in parallel to SAM) of the same compound?
A: did not have the same effect

Q: And the Activity % ([1]; 1µM compound, 1 µM)?
A: 100%

Q: What about the activity at 1 µM ([1]; 1µM compound, read-out: Activity %) of the same compound?
A: 93%

Q: And the Activity % ([1]; 10µM compound, 10 µM)?
A: 84%

Q: And the activity at 10 µM ([1]; 10µM compound, read-out: Activity %)?
A: 94%

Q: And the Activity % ([2]; 1µM compound, Exp1, Exp2, 1 µM)?
A: 95%

Q: What about the activity at 1 µM ([2]; 1µM compound, Exp1, Exp2, read-out: Activity %) of the same compound?
A: 97%

Q: What about the Activity % [2, 5] of the same compound?
A: 103%

Q: And the activity at 10 µM ([2]; 10µM compound, Exp1, Exp2, read-out: Activity %)?
A: 100%

Q: What about the “HEK293T cell growth (in words)” value ([3]; 3 µM) of the same compound?
A: neither compound affected HEK293T cell growth

Q: What about the “Cell# - toxocity data, % Control” value ([3]; 1 µM) of the same compound?
A: 89.1325 % Control and 119.658 % Control and 130.764 % Control

Q: What about the “Cell# - toxocity data, % Control” value ([3]; 3 µM) of the same compound?
A: 81.2039 % Control and 117.832 % Control and 120.808 % Control

Q: And the “Cell# - toxocity data, % Control” value ([3]; 5 µM)?
A: 86.208 % Control and 117.65 % Control and 129.14 % Control

Q: And the “Cell# - toxocity data, % Control” value ([3]; 10 µM)?
A: 89.6654 % Control and 116.798 % Control and 107.394 % Control
